# Measured values as given in publication PMC12040169 (PLOS Biology, 2025).
# Assay: in vitro
# Conditions: human, hela cells, % viability
Structure (SMILES),"viability at 28.5 h, 10 µM [%]","viability at 28.5 h, 10 µM (bulk resorufin, single well) [%]"
Cc1cccc(-c2csc3c(=O)[nH]c(N4CCC(C(=O)NCCc5cccnc5)CC4)nc23)c1 [CBK215627],94,–
COCCNC(=O)C1CCN(c2nc3c(-c4cccc(C)c4)csc3c(=O)[nH]2)CC1 [CBK215629],93.1,–
O=[N+]([O-])c1ccc(Cl)cc1N/N=C1\CN2CCC1CC2 [CBK217272],108,–
CC(=O)NC(Cc1c[nH]c2ccccc12)C(=O)O (stereo not shown) [CBK217373],95.9,–
CCOC(=O)c1c(CSc2ccc(Cl)cc2)n(C)c2cc(Br)c(O)c(CN(C)C)c12 [CBK217489C],108,–
CC(=O)c1c(C)n(O)c2ccc(Cl)cc2c1=O [CBK217746],107,–
COc1ccc(-c2c(C(F)(F)F)oc3c(CN4CC(C)OC(C)C4)c(O)ccc3c2=O)cc1OC (stereo not shown) [CBK217829],100,–
CCCCc1c(C(=O)O)cc(OC)cc1C(=O)O [CBK217866],93.5,–
C[N+]1(C)CCCC1c1cc(Br)cnc1N (stereo not shown) [CBK217873I],90.8,–
CC(C)(C)c1ccc(Oc2c(C(F)(F)F)oc3cc(OCC(=O)O)ccc3c2=O)cc1 [CBK217882],94.1,–
CC(Cc1c[nH]c2ccccc12)NC(=O)CN (stereo not shown) [CBK218213C],100,–
c1cncc(CN2CCN(Cc3c[nH]c4ccccc34)CC2)c1 [CBK218281],92.2,–
COc1ccc(NC(=O)CSc2nc3c(N)ncnc3[nH]2)cc1 [CBK218441],91.4,–
CC1NC(C(=O)O)Cc2c1[nH]c1ccccc21 (stereo not shown) [CBK218664],102,–
O=C(O)COc1cccc2ccccc12 [CBK218704],106,–
CC(=O)NC(CCCN=C(N)N)C(=O)O (stereo not shown) [CBK218726],107,–
Cc1ccc2nc(NC3=NC(CC(=O)O)C(=O)N3)nc(C)c2c1 (stereo not shown) [CBK218806],90.3,–
O=C(O)c1ccc(NC2OC(CO)C(O)C2O)cc1 (stereo not shown) [CBK218836],95.9,–
NC(=O)NC(Cc1c[nH]c2ccccc12)C(=O)O (stereo not shown) [CBK218895],105,–
COc1cc2c(cc1OC)C(C(=O)O)CC(=O)N2 (stereo not shown) [CBK218955],87.4,–
COc1cc(C2NC(C(=O)O)Cc3c2[nH]c2ccccc32)cc(OC)c1OC (stereo not shown) [CBK219193],101,–

Structure (SMILES),"viability at 28.5 h, 10 µM [%]","viability at 28.5 h, 10 µM (bulk resorufin, single well) [%]"
CCc1c(O)c2ccccc2n(Cc2ccccc2)c1=O [CBK219367],90,–
Cc1nc2cc(C(=O)O)ccc2[nH]1 [CBK220035],84.6,–
O=C(Nc1ccc2c(c1)OCCO2)c1cnccn1 [CBK220830],92.8,–
O=C(CSc1nc2ccccc2o1)N1c2ccccc2Sc2ccccc21 [CBK221524],97.7,–
Clc1ccc(SCc2cccc(CSc3ccc(Cl)c(Cl)c3)n2)cc1Cl [CBK223404],86.3,–
O=C1c2ccccc2C(=O)N1CN(CCc1ccc(Cl)cc1)CN1C(=O)c2ccccc2C1=O [CBK225934],90.8,–
CC(=O)Nc1ccc(NC(=O)CSCC(=O)O)cc1 [CBK226269],89.3,–
NS(=O)(=O)c1ccc(CNS(=O)(=O)Cc2ccccc2)cc1 [CBK228048],87,–
O=C(O)Cc1c[nH]c2ccccc12 [CBK228897G],102,–
O=C1NC(=O)C(=Cc2ccc(-c3ccc([N+](=O)[O-])cc3)o2)C(=O)N1 [CBK229904],–,114
O=C(NCCc1c[nH]c2ccccc12)c1cccs1 [CBK231038],88.2,–
O=C(O)CCCC(=O)Nc1ccccc1-c1ccccc1 [CBK231405],94.9,–
Cc1ccc(OCc2cc(-c3ccco3)on2)c([N+](=O)[O-])n1 [CBK233261],98.8,–
Cc1c(C(=O)C2=C(O)C(=O)N(Cc3cccnc3)C2c2ccncc2)cnn1-c1ccccc1 (stereo not shown) [CBK233899],114,–
Cc1ccc(C2C(C(=O)c3sc(-c4ccccc4)nc3C)=C(O)C(=O)N2CCN(C)C)o1 (stereo not shown) [CBK234004],107,–
Cc1oc(NC(=O)CN2CCN(c3ccccn3)CC2)c(C#N)c1C [CBK236456],96.9,–
CC1(C)NC(=O)N(CCCC(=O)NCc2coc(-c3cccs3)n2)C1=O [CBK237157],105,–
Cn1ncc2c(=O)n(Cc3nnsc3Cl)cnc21 [CBK237374],102,–
Cc1nc(-c2ccc(CNC(=O)c3cc(=O)[nH]c4ccccc34)o2)cs1 [CBK238261],79.2,–
O=C(c1ccco1)N1CCN(CC(=O)N2c3ccccc3OCC2c2ccccc2)CC1 (stereo not shown) [CBK239722],89.9,–
CSCc1nnc(SCCC(=O)N2CCN(c3ccc(F)cc3)CC2)o1 [CBK240463],93.2,–

Structure (SMILES),"viability at 28.5 h, 10 µM [%]","viability at 28.5 h, 10 µM (bulk resorufin, single well) [%]"
COC(=O)c1cc(-c2c[nH]c3ccccc23)[nH]n1 [CBK241010],92.5,–
CC(c1ccc(Cl)cc1Cl)N(C)C(=O)c1ccc(S(C)(=O)=O)cc1 (stereo not shown) [CBK242418],113,–
CC(=O)N1CCCN(C(=O)Cn2cnc3ccc(F)cc3c2=O)CC1 [CBK245206],106,–
CCOc1ncccc1NC(=O)C(C)n1cccn1 (stereo not shown) [CBK245377],105,–
COCCN1CC2=C(C1=O)C(c1ccc(F)cc1)NC(=O)N2 (stereo not shown) [CBK249447],81.9,–
Cc1nn(C)c(C)c1CC(=O)Nc1nc(C(C)(C)C)cs1 [CBK250992],105,–
CN(Cc1cnn(C)c1)C(=O)c1cc(O)nc2ccccc12 [CBK251706],106,–
COc1ccc(CN2CCCN(C(=O)c3ccc(F)cc3Br)CC2)cc1 [CBK251752],88.1,–
CC(=O)Nc1ccc(CNC(=O)c2ccc(C(F)(F)F)cn2)cc1 [CBK252121],92,–
O=C(NCCNc1cnccn1)c1cc(Br)ccc1F [CBK253480],110,–
Cc1ccc(C(=O)N2CCC(c3nc4ccccc4s3)CC2)cc1NS(C)(=O)=O [CBK254629],89.2,–
CS(=O)(=O)c1ccc(C(=O)Nc2nccs2)cc1 [CBK255213],98.3,–
COCC(=O)Nc1ccc(N2CCCC2=O)c(Cl)c1 [CBK256871],106,–
COc1ccc(CN(C(=O)c2cccc(-n3cnnn3)c2)C2CC2)cc1 [CBK256997],91.6,–
Cc1cc(NC(=O)CN(C)CC(=O)Nc2ccc(Br)cc2C)no1 [CBK260700],92.9,–
C/C(=N/OCO/N=C(\C)c1cccc([N+](=O)[O-])c1)c1cccc([N+](=O)[O-])c1 [CBK260872],89,–
CC(C)(C)c1cc(C(=O)O)[nH]n1 [CBK260874],103,–
NC(CCC(=O)O)C(=O)O (stereo not shown) [CBK260875C],97.3,–
O=C(NNc1ccccc1)c1c(O)c2ccccc2oc1=O [CBK260878],75.1,–
CC(C)(C)S(=O)(=O)c1ccc(C(=O)O)s1 [CBK260880],91.4,–
O=C(C[n+]1ccc(CCSCc2ccc3c4c(cccc24)CC3)cc1)c1ccc2c3c(cccc13)CC2 [CBK260881B],96.4,–

Structure (SMILES),"viability at 28.5 h, 10 µM [%]","viability at 28.5 h, 10 µM (bulk resorufin, single well) [%]"
CCC(C)c1cc([N+](=O)[O-])cc([N+](=O)[O-])c1OC(=O)OC(C)C (stereo not shown) [CBK260882],99.2,–
Cc1ccc(C2N(Cc3ccccc3)CCN2Cc2ccccc2)o1 [CBK260883],98.3,–
C(=N\c1ccc(Cc2ccc(/N=C/c3cccnc3)cc2)cc1)/c1cccnc1 [CBK260884],95,–
c1ccc(CN2CCN(Cc3ccccc3)C2c2cccnc2)cc1 [CBK260885],93.2,–
CC(=O)Nc1ccc(Nc2ccc([N+](=O)[O-])cc2[N+](=O)[O-])cc1 [CBK260886],84.6,–
c1ccc(CN2CCN(Cc3ccccc3)C2c2ccco2)cc1 [CBK260888],99.6,–
O=C(O)CCC(=O)Nc1cccc2ccccc12 [CBK260889],112,–
CC(C)(C)C1CCC(OC(=O)CCC(=O)Nc2nccs2)CC1 (stereo not shown) [CBK260890],96.9,–
O=C(CCSS(=O)(=O)O)N1CCc2ccccc21 [CBK260892N],94.4,–
COc1cc([N+](=O)[O-])c2[nH]c(C(=O)O)c(CCNC(C)=O)c2c1 [CBK260895],105,–
OCC(O)CN1CCc2ccccc21 (stereo not shown) [CBK260896],101,–
O=C(O)CC[n+]1c(/C=C/Nc2ccccc2)oc2ccccc21 [CBK260898B],93.3,–
CC/C(=C/c1sc2ccc3ccccc3c2[n+]1CCCS(=O)(=O)[O-])SC [CBK260901],104,–
O=C(O)CN(Cc1ccccc1)Cc1ccccc1 [CBK260903],104,–
O=C(O)C(Cc1ccccc1)N1C(=O)c2ccccc2C1=O (stereo not shown) [CBK260904],97.6,–
O=C(O)C(=C/C=C/Br)C(=O)O [CBK260906],92.6,–
COc1ccc(N2C(=O)CC(N3CCN(C4CC(=O)N(c5ccc(OC)cc5)C4=O)CC3)C2=O)cc1 (stereo not shown) [CBK260907],88.2,–
COc1ccc(C2NC(C(=O)O)CS2)c(OC)c1 (stereo not shown) [CBK260908],99.2,–
O=C(O)C1CSC(c2ccc([N+](=O)[O-])cc2)N1 (stereo not shown) [CBK260909],103,–
